BindingDB's records for doi:10.1021/jm970161m (Warner-Lambert, 1997)
pIC50: −log10 of the molar value. Square brackets hold non-standard residues; d marks the D form. Peptide text beside a SMILES is read from it. NMeDip = CN[C@H](C(=O)O)C(c1ccccc1)c1ccccc1; Dip = N[C@H](C(=O)O)C(c1ccccc1)c1ccccc1; NMeI = CC[C@H](C)[C@H](NC)C(=O)O

Molecular target: Endothelin-1 receptor (Oryctolagus cuniculus)
Experiment: Inhibition of binding to Endothelin A receptor of rabbit renal vascular smooth muscle cells

For `CC[C@H](C)[C@H](NC(=O)[C@H]([C@@H](C)CC)N(C)C(=O)[C@H](CC(=O)O)NC(=O)[C@H](CC(C)C)NC(=O)[C@@H](NC(C)=O)C(c1ccccc1)c1ccccc1)C(=O)N[C@@H](Cc1c[nH]c2ccccc12)C(=O)O` (Ac-[Dip]LD[NMeI]IW-OH), the pIC50 was 6.15.

`CC[C@H](C)[C@H](NC(=O)[C@H](CC(=O)O)NC(=O)[C@H](CC(C)C)NC(=O)[C@H](C(c1ccccc1)c1ccccc1)N(C)C(C)=O)C(=O)N[C@H](C(=O)N[C@@H](Cc1c[nH]c2ccccc12)C(=O)O)[C@@H](C)CC` (Ac-[NMeDip]LDIIW-OH) gave a pIC50 of 5.35.
